Like-named read-outs stand apart in the source and are kept apart here.
Assays:
HRV (89) = assay: Antirhinoviral H1-HeLa cell culture assay, HRV serotype 89; format: cell-based, human rhinovirus; details: Human rhinovirus sp., H1-HeLa cells, XTT
Method: (§1) In this cell protection assay, the ability of compounds to protect cells against HRV infection was measured by the XTT dye reduction method, which is described in Weislow et al., J. Natl. Cancer Inst. 1989, vol. 81, 577-586.
(§2) H1-HeLa cells were infected with HRV-14 at a multiplicity of infection (m.o.i.) of 0.13 (virus particles/cell) or mock-infected with medium only. Infected or mock-infected cells were resuspended at 8×10^5 cells per mL, and incubated with appropriate concentrations of the compounds to be tested. Two days later, XTT/PMS was added to test plates and the amount of formazan produced was quantified spectrophotometrically at 450/650 nm. The EC50 value was calculated as the concentration of compound that increased the percentage of formazan production in compound-treated, virus-infected cells to 50% of that produced by compound-free, mock-infected cells. The 50% cytotoxic dose (CC50) was calculated as the concentration of compound that decreased the percentage of formazan produced in compound-treated, mock-infected cells to 50% of that produced by compound-free, mock-infected cells. The therapeutic index (TI) was calculated by dividing the CC50 value by the EC50 value.
(§3) All strains of human rhinovirus (HRV) for use in this assay were purchased from American Type Culture Collection (ATCC), except for HRV serotype-14 (produced from the infectious cDNA clone constructed by Dr. Robert Rueckert, Institute for Molecular Virology, University of Wisconsin, Madison, Wis.). HRV stocks were propagated and viral assays were performed in H1-HeLa cells (ATCC). Cells were grown in minimal essential medium with 10% fetal bovine serum, available from Life Technologies (Gaithersburg, Md.).
(§4) The compounds were tested against control compounds WIN 51711, WIN 52084, and WIN 54954 (obtained from Sterling-Winthrop Pharmaceuticals), Pirodavir (obtained from Janssen Pharmaceuticals), and Pleconaril (prepared according to the method described in Diana et al., J. Med. Chem 1995, vol. 38, 1355). Antiviral data obtained for the test compounds are shown in Tables 1 and 3, where all data are for HRV serotype-14 unless otherwise noted in parentheses.

HRV (10) = assay: Antirhinoviral H1-HeLa cell culture assay, HRV serotype 10; format: cell-based, human rhinovirus; details: Human rhinovirus sp., H1-HeLa, H1-HeLa cells, XTT
Method: as §1, §2, §3, §4

[1] = system: Coxsackievirus type A-21 (CAV-21); assay: Anticoxsackieviral cell culture assay, CAV-21; format: cell-based; details: 48 h, Strain CAV-21, H1-HeLa cells, two days, XTT, read-out: EC50
Method: (§5) Coxsackievirus types A-21 (CAV-21) and B3 (CVB-3) were purchased from American Type Culture Collection (ATCC, Rockville, Md.). Virus stocks were propagated and antiviral assays were performed in H1-HeLa cells (ATCC). Cells were grown in minimal essential medium with 10% fetal bovine serum (Life Technologies, Gaithersburg, Md.).
(§6) The ability of compounds to protect cells against either CAV-21 or CVB-3 infection was measured by the XTT dye reduction method. This method is described in Weislow et al., J. Natl. Cancer Inst. 1989, vol. 81, 577-586. H1-HeLa cells were infected with CAV-21 or CVB-3 at a multiplicity of infection (m.o.i.) of 0.025 or 0.075, respectively, or mock-infected with medium only. H1-HeLa cells were plated at 4×10^4 cells per well in a 96-well plate and incubated with appropriate concentrations of the test compound. One day (CVB-3) or two days (CAV-21) later, XTT/PMS was added to test plates and the amount of formazan produced was quantified spectrophotometrically at 450/650 nm. The EC50 was calculated as the concentration of compound that increased the formazan production in compound-treated, virus-infected cells to 50% of that produced by compound-free, uninfected cells. The 50% cytotoxic dose (CC50) was calculated as the concentration of compound that decreased formazan production in compound-treated, uninfected cells to 50% of that produced in compound-free, uninfected cells. The therapeutic index TI) was calculated by dividing the CC50 by the EC50.
(§7) The compounds were tested against control compounds WIN 54954 (obtained from Sterling-Winthrop Pharmaceuticals), Pirodavir (obtained from Janssen Pharmaceuticals), and Pleconaril (prepared according to Diana et al., J. Med. Chem. 1995, 38, 1355).

[2] = system: Coxsackievirus type B3 (CVB-3); assay: Anticoxsackieviral cell culture assay, CVB-3; format: cell-based; details: 24 h, Strain CVB-3, H1-HeLa cells, one day, XTT, read-out: EC50
Method: as §5, §6, §7

HRV (13) = assay: Antirhinoviral H1-HeLa cell culture assay, HRV serotype 13; format: cell-based, human rhinovirus; details: Human rhinovirus sp., H1-HeLa, H1-HeLa cells, XTT
Method: as §1, §2, §3
(§8) The compounds were tested against control compounds WIN 51711, WIN 52084, and WIN 54954 (obtained from Sterling-Winthrop Pharmaceuticals), Pirodavir (obtained from Janssen Pharmaceuticals), and Pleconaril (prepared according to the method described in Diana et al., J. Med. Chem 1995, vol. 38, 1355). […]

HRV (3) = assay: Antirhinoviral H1-HeLa cell culture assay, HRV serotype 3; format: cell-based, human rhinovirus; details: Human rhinovirus sp., H1-HeLa, H1-HeLa cells, XTT
Method: as §1, §2, §3, §8

HRV (12) = assay: Antirhinoviral H1-HeLa cell culture assay, HRV serotype 12; format: cell-based; details: Human rhinovirus sp., H1-HeLa cells, XTT
Method: as §1
as §2, with “value. […]” for “value.”

HRV-14 = assay: Antirhinoviral H1-HeLa cell culture assay, HRV-14; format: cell-based, human rhinovirus; details: Rhinovirus B, HRV14, H1-HeLa, HRV serotype-14, H1-HeLa cells
In short: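 Antiviral EC50 comes from formazan production by infected, compound-treated H1-HeLa cells reaching 50% of the mock-infected, untreated level. Cells grown in MEM/10% FBS were infected at m.o.i. 0.13 and incubated with compound for two days before XTT/PMS addition.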

[3] = target: T1, rhinovirus 3C protease from HRV serotype-14 (Human rhinovirus 14, UniProt P03303); assay: Inhibition of rhinovirus 3C protease (FRET assay), serotype 14; format: biochemical; details: read-out: Protease Inhibition kobs/[I], HRV serotype-14 3C protease; progress curves in enzyme start experiments
T1 construct: Recombinant rhinovirus 3C proteases; made in house
T1 sequence (P03303 1538-1719): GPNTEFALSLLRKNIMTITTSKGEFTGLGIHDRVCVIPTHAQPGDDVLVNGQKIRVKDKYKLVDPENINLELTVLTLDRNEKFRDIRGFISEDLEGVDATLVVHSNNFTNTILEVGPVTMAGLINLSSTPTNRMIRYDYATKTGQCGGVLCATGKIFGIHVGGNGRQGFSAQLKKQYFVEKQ
In short: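 Recombinant 3C protease (50-100 nM) with ~1 μM DABCYL-GRAVFQGPVG-EDANS FRET substrate in 50 mM Tris pH 7.6, 1 mM EDTA, 2% DMSO. Cleavage read as increase in EDANS fluorescence. kobs/[I] derived from progress curves of enzyme-initiated reactions.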

For `CCOC(=O)/C=C/[C@H](C[C@@H]1CCNC1=O)NC(=O)[C@@H](CC(=O)[C@@H](NC(=O)c1cc(C)on1)C(C)C)Cc1ccc(F)cc1` [Compound B-2, Ethyl-3-{(5′-Methylisoxazole-3′-carbonyl)-L-ValΨ(COCH2)-L-(4-F-Phe)-L-((S)-Pyrrol-Ala)}-E-Propenoate], the EC50 (HRV (89)) was 9 nM, the EC50 (HRV (10)) was 20 nM and the EC50 [1] was 160 nM. The EC50 [2] was 180 nM, the EC50 (HRV (13)) was 10 nM and the EC50 (HRV (3)) was 20 nM. For the same compound, the EC50 (HRV (12)) was 50 nM, the EC50 (HRV-14; Table 1, XTT dye reduction, read-out: Cell Protection EC50) was 5 nM and the EC50 (HRV-14; Table 3, XTT, read-out: EC50) was 5 nM. The kinact/KI [3] was 1.09e+06 M⁻¹ s⁻¹.

Reference: patent US20060046966A1, “Antipicornaviral compounds and compositions, their pharmaceutical uses, and materials for their synthesis” (Agouron Pharmaceuticals, Inc., priority 1998, published 2006)
